Assay results as given in patent US20180370927A1, “MICROBIOCIDAL OXADIAZOLE DERIVATIVES” (SYNGENTA PARTICIPATIONS AG, priority 2015, published 2018).

What was measured:
[1] = test system: Puccinia recondita f. Sp. Tritici; assay: Puccinia recondita f. sp. tritici / wheat / leaf disc preventative (brown rust); format: in vivo; details: foliar, 200 ppm in the applied formulation, wheat leaf segments, preventative, assessed 7 to 9 days after application, read-out: disease control compared to untreated control leaf disks
Method: (§1) Leaf disks or leaf segments of various plant species are cut from plants grown in a greenhouse. The cut leaf disks or segments are placed in multiwell plates (24-well format) onto water agar. The leaf disks are sprayed with a test solution before (preventative) or after (curative) inoculation. Compounds to be tested are prepared as DMSO solutions (max. 10 mg/mL) which are diluted to the appropriate concentration with 0.025% Tween20 just before spraying. The inoculated leaf disks or segments are incubated under defined conditions (temperature, relative humidity, light, etc.) according to the respective test system. A single evaluation of disease level is carried out 3 to 14 days after inoculation, depending on the pathosystem. Percent disease control relative to the untreated check leaf disks or segments is then calculated.
Example 1: Fungicidal Activity Against Puccinia recondita f. Sp. Tritici/Wheat/Leaf Disc Preventative (Brown Rust)
Wheat leaf segments cv. Kanzler were placed on agar in multiwell plates (24-well format) and sprayed with the formulated test compound diluted in water. The leaf disks were inoculated with a spore suspension of the fungus 1 day after application. The inoculated leaf segments were incubated at 19° C. and 75% relative humidity (rh) under a light regime of 12 hours light/12 hours darkness in a climate cabinet and the activity of a compound was assessed as percent disease control compared to untreated when an appropriate level of disease damage appears in untreated check leaf segments (7 to 9 days after application).
(§2) The following compounds at 200 ppm in the applied formulation give at least 80% disease control in this test when compared to untreated control leaf disks under the same conditions, which show extensive disease development.

[2] = test system: Puccinia recondita f. Sp. Tritici; assay: Puccinia recondita f. sp. tritici / wheat / leaf disc curative (brown rust); format: in vivo; details: foliar, 200 ppm in the applied formulation, wheat leaf segments, curative (applied 1 day after inoculation), assessed 6 to 8 days after application, read-out: disease control compared to untreated control leaf disks
Method: as §1
Example 2: Fungicidal Activity Against Puccinia recondita f. Sp. Tritici/Wheat/Leaf Disc Curative (Brown Rust)
Wheat leaf segments cv. Kanzler are placed on agar in multiwell plates (24-well format). The leaf segments are then inoculated with a spore suspension of the fungus. Plates were stored in darkness at 19° C. and 75% relative humidity. The formulated test compound diluted in water was applied 1 day after inoculation. The leaf segments were incubated at 19° C. and 75% relative humidity under a light regime of 12 hours light/12 hours darkness in a climate cabinet and the activity of a compound was assessed as percent disease control compared to untreated when an appropriate level of disease damage appears in untreated check leaf segments (6 to 8 days after application).
as §2

[3] = test system: Glomerella lacenarium (Colletotrichum lacenarium); assay: Glomerella lacenarium (Colletotrichum lacenarium) liquid culture / cucumber / preventative (anthracnose); format: cell-based; details: 20 ppm in the applied formulation, liquid culture in PDB, 24° C., 3 to 4 days after application, read-out: disease control (inhibition of growth, photometric) compared to untreated control
Outline: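 Cryostored conidia in potato dextrose broth added to DMSO compound solution in microtiter plates, incubated at 24° C. Growth inhibition read photometrically 3 to 4 days after application, as percent control versus untreated check; compounds tested at 20 ppm.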

CON(Cc1ccc(-c2noc(C(F)(F)F)n2)cc1)C(=O)C(=O)NC1CC1 [Compound 4.68, N-cyclopropyl-N′-methoxy-N′-[[4-[5-(trifluoromethyl)-1,2,4-oxadiazol-3-yl]phenyl]methyl] oxamide]
≥ 80%: pest or weed control at 200 ppm [1] | pest or weed control at 200 ppm [2] | inhibition at 20 ppm [3]

CON(Cc1ccc(-c2noc(C(F)(F)F)n2)cc1)C(=O)C(=O)NC(C)C [Compound 4.64, N-isopropyl-N′-methoxy-N′-[[4-[5-(trifluoromethyl)-1,2,4-oxadiazol-3-yl]phenyl]methyl] oxamide]
≥ 80%: pest or weed control at 200 ppm [1] | pest or weed control at 200 ppm [2] | inhibition at 20 ppm [3]

CONC(=O)C(=O)N(Cc1ccc(-c2noc(C(F)(F)F)n2)cc1)OC [Compound 4.78, N,N′-dimethoxy-N′-[[4-[5-(trifluoromethyl)-1,2,4-oxadiazol-3-yl]phenyl]methyl] oxamide]
≥ 80%: pest or weed control at 200 ppm [1] | pest or weed control at 200 ppm [2] | inhibition at 20 ppm [3]

CN(C)C(=O)C(=O)N(Cc1ccc(-c2noc(C(F)(F)F)n2)cc1)Cc1ccco1 [Compound 4.23, N′-(2-furylmethyl)-N,N-dimethyl-N′-[[4-[5-(trifluoromethyl)-1,2,4-oxadiazol-3-yl]phenyl]methyl] oxamide]
≥ 80%: pest or weed control at 200 ppm [1] | pest or weed control at 200 ppm [2] | inhibition at 20 ppm [3]

CCCC(=O)C(=O)N(CCOC)Cc1ccc(-c2noc(C(F)(F)F)n2)cc1 [Compound 1.9, N-(2-methoxyethyl)-2-oxo-N-[[4-[5-(trifluoromethyl)-1,2,4-oxadiazol-3-yl]phenyl]methyl]pentanamide]
≥ 80%: pest or weed control at 200 ppm [1] | pest or weed control at 200 ppm [2] | inhibition at 20 ppm [3]

CCONC(=O)C(=O)N(Cc1ccc(-c2noc(C(F)(F)F)n2)cc1)OC [Compound 4.74, N-ethoxy-N′-methoxy-N′-[[4-[5-(trifluoromethyl)-1,2,4-oxadiazol-3-yl]phenyl]methyl] oxamide]
≥ 80%: pest or weed control at 200 ppm [1] | pest or weed control at 200 ppm [2] | inhibition at 20 ppm [3]

CCCNC(=O)C(=O)N(Cc1ccc(-c2noc(C(F)(F)F)n2)cc1)OC [Compound 4.77, N′-methoxy-N-propyl-N′-[[4-[5-(trifluoromethyl)-1,2,4-oxadiazol-3-yl]phenyl]methyl] oxamide]
≥ 80%: pest or weed control at 200 ppm [1] | pest or weed control at 200 ppm [2] | inhibition at 20 ppm [3]

CCCC(=O)C(=O)N(Cc1ccc(-c2noc(C(F)(F)F)n2)cc1)Cc1ccco1 [Compound 1.15, N-(2-furylmethyl)-2-oxo-N-[[4-[5-(trifluoromethyl)-1,2,4-oxadiazol-3-yl]phenyl]methyl]pentanamide]
≥ 80%: pest or weed control at 200 ppm [1] | pest or weed control at 200 ppm [2] | inhibition at 20 ppm [3]

CCC(C)N(Cc1ccc(-c2noc(C(F)(F)F)n2)cc1)C(=O)C(N)=O (stereo not drawn) [Compound 4.13, N′-sec-butyl-N′-[[4-[5-(trifluoromethyl)-1,2,4-oxadiazol-3-yl]phenyl]methyl] oxamide]
≥ 80%: pest or weed control at 200 ppm [1] | pest or weed control at 200 ppm [2] | inhibition at 20 ppm [3]

CONC(=O)C(=O)N(Cc1ccc(-c2noc(C(F)(F)F)n2)cc1)C1CC1 [Compound 4.103, N′-cyclopropyl-N-methoxy-N′-[[4-[5-(trifluoromethyl)-1,2,4-oxadiazol-3-yl]phenyl]methyl] oxamide]
≥ 80%: pest or weed control at 200 ppm [1] | pest or weed control at 200 ppm [2] | inhibition at 20 ppm [3]

NC(=O)C(=O)N(Cc1ccc(-c2noc(C(F)(F)F)n2)cc1)CC1CCCO1 (stereo not drawn) [Compound 4.14, N′-(tetrahydrofuran-2-ylmethyl)-N′-[[4-[5-(trifluoromethyl)-1,2,4-oxadiazol-3-yl]phenyl]methyl] oxamide]
≥ 80%: pest or weed control at 200 ppm [1] | pest or weed control at 200 ppm [2] | inhibition at 20 ppm [3]

CNC(=O)C(=O)N(Cc1ccc(-c2noc(C(F)(F)F)n2)cc1)C1CC1 [Compound 4.100, N′-cyclopropyl-N-methyl-N′-[[4-[5-(trifluoromethyl)-1,2,4-oxadiazol-3-yl]phenyl]methyl] oxamide]
≥ 80%: pest or weed control at 200 ppm [1] | pest or weed control at 200 ppm [2] | inhibition at 20 ppm [3]

CON(Cc1ccc(-c2noc(C(F)(F)F)n2)cc1)C(=O)C(=O)NC1CCC1 [Compound 4.72, N-cyclobutyl-N′-methoxy-N′-[[4-[5-(trifluoromethyl)-1,2,4-oxadiazol-3-yl]phenyl]methyl] oxamide]
≥ 80%: pest or weed control at 200 ppm [1] | pest or weed control at 200 ppm [2] | inhibition at 20 ppm [3]

CC(C)NC(=O)C(=O)NCc1ccc(-c2noc(C(F)(F)F)n2)cc1 [Compound 4.46, N′-isopropyl-N-[[4-[5-(trifluoromethyl)-1,2,4-oxadiazol-3-yl]phenyl]methyl] oxamide]
≥ 80%: pest or weed control at 200 ppm [1] | pest or weed control at 200 ppm [2] | inhibition at 20 ppm [3]

CCC(=O)C(=O)NCc1ccc(-c2noc(C(F)(F)F)n2)cc1C [Compound 1.85, N-[[2-methyl-4-[5-(trifluoromethyl)-1,2,4-oxadiazol-3-yl]phenyl]methyl]-2-oxo-butanamide]
≥ 80%: pest or weed control at 200 ppm [1] | pest or weed control at 200 ppm [2] | inhibition at 20 ppm [3]

CCN(Cc1ccc(-c2noc(C(F)(F)F)n2)cc1)C(=O)C(=O)NOC [Compound 4.107, N'-ethyl-N-methoxy-N′-N′-[[4-[5-(trifluoromethyl)-1,2,4-oxadiazol-3-yl]phenyl]methyl] oxamide]
≥ 80%: pest or weed control at 200 ppm [1] | pest or weed control at 200 ppm [2] | inhibition at 20 ppm [3]

CON(Cc1ccc(-c2noc(C(F)(F)F)n2)cc1)C(=O)C(=O)N1CCOCC1 [Compound 4.80, N-methoxy-2-morpholino-2-oxo-N-[[4-[5-(trifluoromethyl)-1,2,4-oxadiazol-3-yl]phenyl]methyl] acetamide]
≥ 80%: pest or weed control at 200 ppm [1] | pest or weed control at 200 ppm [2] | inhibition at 20 ppm [3]

CCCONC(=O)C(=O)NCc1ccc(-c2noc(C(F)(F)F)n2)cc1 [Compound 4.42, N′-propoxy-N-[[4-[5-(trifluoromethyl)-1,2,4-oxadiazol-3-yl]phenyl]methyl] oxamide]
≥ 80%: pest or weed control at 200 ppm [1] | pest or weed control at 200 ppm [2] | inhibition at 20 ppm [3]

CON(C)C(=O)C(=O)NCc1ccc(-c2noc(C(F)(F)F)n2)cc1 [Compound 4.48, N′-methoxy-N′-methyl-N-[[4-[5-(trifluoromethyl)-1,2,4-oxadiazol-3-yl]phenyl]methyl] oxamide]
≥ 80%: pest or weed control at 200 ppm [1] | pest or weed control at 200 ppm [2] | inhibition at 20 ppm [3]

CCNC(=O)C(=O)N(Cc1ccc(-c2noc(C(F)(F)F)n2)cc1)OC [Compound 4.66, N-ethyl-N′-methoxy-N′-[[4-[5-(trifluoromethyl)-1,2,4-oxadiazol-3-yl]phenyl]methyl] oxamide]
≥ 80%: pest or weed control at 200 ppm [1] | pest or weed control at 200 ppm [2] | inhibition at 20 ppm [3]
